In patent US12343335B2, “Pharmaceutical composition for treating multiple sclerosis on basis of AMPK inhibitory function and zinc homeostasis control function” (ZINCURE CORP., priority 2019, dated 2025):

Legend:
neuronal cell death = details: after stroke; Eom J. W. et al., ACS Chem Neurosci. 2019; cited from earlier work
[1] = tested on: mouse cortical neuron culture; assay: Intrinsic toxicity in cortical neuron culture, LDH cytotoxicity; type: cell-based; details: 40 μM
Procedure: (§1) The mouse cortical neurons used in the present invention were extracted from the brain of a mouse embryo, and cultured in Dulbecco's modified Eagle's medium (DMEM, Gibco, Grand Island, NY, US) supplemented with 5% fetal bovine serum (FBS) and 5% horse serum (HS) under the condition of 95% humidity, 5% CO2 and 37° C. For activation and differentiation of the cells, the cells were grown to a density of 2×10^4 cells in a 24-well tissue culture plate and cultured in MEM medium without FBS and HS before treatment with zinc and compounds.
Specifically, 40 μM of each of the drugs was treated in a mouse cortical neuron culture, and LDH cytotoxicity was observed after 24 or 48 hours.

cultivated neurons = assay: Cytosolic zinc level in cultured neurons with FluoZin-3; type: cell-based, mouse; details: neurons exposed to zinc (300 μM) for 15 minutes, measured for 60 min
Procedure: as §1
The present inventors treated FluoZin-3, a substance illuminate fluorescence if it bind to free zinc to cultivated neurons in order to verify the possibility of zinc chelation according to the treatment of 1H10 {(Z)-5-((1H-indol-3-yl)methylene)-2-((3-hydroxyphenyl)amino)thiazol-4(5H)-one} according to an embodiment of the present invention, and then measured cytosolic zinc level in the neurons for 60 min after exposing zinc (300 μM) for 15 minutes and removing the zinc. In addition, 20 μM zinc (ZnCl2) and NewPort Green DCF fluorophore, which emits fluorescence when it bind to zinc, were added to the test tube, and 1H10 of the present invention was treated at various concentrations. Clioquinol, a zinc chelator, and calcium ionophore Phosphorus ionomycin was used as controls. […]

[2] = tested on: spinal cord of MOG35-55 immunized EAE mice; assay: Immunofluorescence staining of spinal cord of EAE mice; type: in vivo, C57BL/6 female mice
Procedure: The present inventors induced experimental autoimmune encephalomyelitis (EAE), an animal model of multiple sclerosis, by subcutaneously injecting Myelin oligodendrocyte glycoprotein 35-55 (MOG35-55) peptide antigen into C57BL/6 female mice (FIG. 1A). For this, MOG35-55 (Ana spec, USA) and Complete freund's adjuvant (CFA) were first prepared, and MOG35-55 (2 mg/ml) was dissolved in Phosphate buffered saline (lx PBS, Sigma), and then the 25 ml of CFA was prepared by dispending 25 ml of incomplete freund's adjuvant (IFA. Sigma) in a 50 ml conical tube. Then, in a fume hood, Mycobacterium tuberculosis H37Ra (100 mg; Difco, USA) was added to the IFA in order to prepare CFA and store it in the refrigerator after vortexing before use. Thereafter, MOG35-55 and CFA containing Mycobacterium tuberculosis H37Ra was mixed in the same amount and injected into both flanks of the mice. And then Pertussis toxin (4 μg/ml, List Biological Laboratories, USA) was injected intraperitoneally on the day of immunization and on the second day after immunization. After the immunization, the mice's body weight and clinical symptoms were measured every day, and the degree of EAE progression was evaluated based on specific clinical symptoms. More details on this are provided below.
On the 21st day after EAE induction, the present inventors anesthetized mice with urethane and then perfused 4% paraformaldehyde into the heart to fix the spinal cord. After extracting the spinal cord, in order to examine demyelination of activity of microglia/macrophages the cell/macrophage activity of the tissue, immunofluorescence staining was performed with anti-myelin basic protein (MBP) and anti-F4/80 (Microglia/Macrophage) antibodies. In addition, anti-bodies against ionized calcium binding adapter molecule-1 (Iba-1) and anti-CD68 (Cluster of Differentiation 68) used as markers of microglia/macrophages to analyze the phenotype of strongly activated microglia/macrophages in the white matter part of the damaged spinal cord. Double immunofluorescence staining was performed using antibodies against CD8 and matrix metalloproteinase 9 (MMP-9) in order to investigate how AMP-activated protein kinase (AMPK) activity affects the survival of these cells. In addition, double immunofluorescence staining was performed using anti-CD8 and anti-phospho-AMPK antibodies to determine how AMP-activated protein kinase (AMPK) activity affects the survival of these cells in T cells infiltrating the spinal cord. In order to compare and analyze the activity of (MMP-9), immunofluorescence staining was performed using anti-MMP-9 antibodies. To examine the activity of astrocytes in the spinal cord, immunofluorescence staining was performed using anti-glial fibrillary acidic protein (GFAP) antibodies. To compare and analyze the expression of cytokines such as tumor necrosis factor (TNF) alpha and interferon (IFN) gamma, double immunofluorescence staining was performed using anti-TNF-alpha and anti-IFN gamma antibodies. In the same manner as the immunohistochemical method described above, the cryosections were reacted with 3% hydrogen peroxide at room temperature for 15 minutes to remove endogenous peroxidase, and then the primary antibodies, rat anti-MBP (1:200, Abcam, UK), anti-F4/80 (1:100, eBioscience, USA), goat anti-Iba1 (1:500, Abcam), anti-CD68 (1:100, Bio-Rad Laboratories, USA), anti-CD8 (1:50, BD Bioscience), anti-p-AMPK (1:100, Abcam), anti-MMP-9 (1:100, Abcam), anti-GFAP (1:500, Abcam), anti-IFN gamma (1:100, Invitrogen, USA), anti-TNF alpha (1:250, Abcam) antibodies were reacted for 15 hours at 4° C. Then, Alexa Fluor 488-, 594-, 647-conjugated secondary antibodies (1:250, Invitrogen, USA) suitable for the host of each primary antibodies were reacted at room temperature for 2 hours. […]

[3] = spinal cord white matter, day 21 after EAE induction, compared to vehicle only
[4] = spinal cord, day 21 after EAE induction, vs vehicle

Question: For O=C1N=C(Nc2cccc(O)c2)S/C1=C\c1c[nH]c2ccccc12 [1H10, (Z)-5-((1H-indol-3-yl)methylene)-2-((3-hydroxyphenyl)amino)thiazol-4(5H)-one], which “neuronal cell death caused by zinc toxicity, excitory toxicity and oxidative damage” value (neuronal cell death) is on record?
Answer: The value was “reduced”.

Question: And the “intrinsic toxicity (LDH cytotoxicity)” value ([1]; after 24 hours of drug treatment)?
Answer: The value was 7.81±2.77%.

Question: What about the “intrinsic toxicity (LDH cytotoxicity)” value ([1]; after 48 hours of drug treatment) of the same compound?
Answer: The value was 60.72±8.28%.

Question: And the “increase of intracellular zinc level (FluoZin-3)” value (cultivated neurons)?
Answer: Its value is “significantly reduced”.

Question: What about the “phosphorylation of AMPK in CD8+ T cells infiltrated into the spinal cord” value ([2]; after EAE induction, vs vehicle) of the same compound?
Answer: The value was “significantly decreased”.

Question: What about the “activity of MMP-9” value ([2]; spinal cord white matter, EAE, compared to vehicle only) of the same compound?
Answer: The value was “inhibited”.

Question: What about the “activity of astrocytes (GFAP)” value ([2]; spinal cord white matter, day 21, vs vehicle) of the same compound?
Answer: The value was “significantly inhibited”.

Question: And the “expression of IFN gamma” value [2, 3]?
Answer: The value was “increased”.

Question: And the “expression of TNF alpha” value [2, 3]?
Answer: Its value is “decreased”.

Question: And the “activated M1-type microglia/macrophages (Iba-1 and CD68 co-expression)” value ([2]; spinal cord, after EAE induction, vs vehicle)?
Answer: The value was “significantly reduced”.

Question: And the “EAE-induced demyelination (MBP staining)” value [2, 4]?
Answer: Its value is “significantly decreased”.

Question: What about the “activity of microglia/macrophages (F4/80)” value [2, 4] of the same compound?
Answer: Its value is “significantly decreased”.
